# In patent US11584743B2, “Indole derivatives as estrogen receptor degraders” (Arvinas Operations, Inc., priority 2016, dated 2023):
# Experiment: Single dose subcutaneous pharmacokinetics in CD-1 mice
# Type: in vivo
# Conditions: mouse, plasma, sc, 10 mg/kg single dose
# Description: Single Dose Subcutaneous Pharmacokinetics in CD-1 Mice The subcutaneous bioavailability was determined in the following study: three CD-1 mice were dosed by subcutaneous injection (10 mg/kg) and plasma was collected at the following hourly time points (0.25, 0.5, 1, 2, 4, 8, and 24 h). Plasma compound concentations were determined by HPLC.
compound,measurement,setting,value
"Cc1ncsc1-c1ccc([C@H](C)NC(=O)[C@@H]2C[C@@H](O)CN2C(=O)[C@@H](NC(=O)COCCOCCOCCOc2ccc(Cn3c(-c4ccc(O)cc4)c(C)c4cc(O)ccc43)cc2)C(C)(C)C)cc1 [Example #5, (2S,4R)-4-hydroxy-1-[(2S)-2-[1-(4-[[5-hydroxy-2-(4-hydroxyphenyl)-3-methyl-1H-indol-1-yl]methyl]phenyl)-1,4,7,10-tetraoxadodecan-12-amido]-3,3-dimethylbutanoyl]-N-[(1S)-1-[4-(4-methyl-1,3-thiazol-5-yl)phenyl]ethyl]pyrrolidine-2-carboxamide]",bioavailability,read-out: F % (subcutaneous bioavailability),100%
same,AUC(0-inf),,8280 ng·h/mL
same,Cmax,,687 ng/mL
same,Tmax,,4 h
same,half-life,,12 h
